Counter-ions that a name gives are not always drawn.
Molecular target: MASP-2 CCP2-SP (Homo sapiens (Human), UniProt O00187)
Assay: MASP-2 co-crystallization, X-ray crystallography and structure analysis (H-bonds, van der Waals contacts);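 on Ligand-pharmacophore element distance, pharmacophore element C2: distance from averaged pharmacophore element to bound ligand; missing value means element absent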;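 on Ligand-pharmacophore element distance, pharmacophore element C3: distance from averaged pharmacophore element to bound ligand; missing value means element absent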;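 on Ligand-pharmacophore element distance, pharmacophore element C4: distance from averaged pharmacophore element to bound ligand; missing value means element absent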;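 on Ligand-pharmacophore element distance, pharmacophore element C5: distance from averaged pharmacophore element to bound ligand; missing value means element absent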
Design: van der Waals contact distance, MASP-2 HIS 483 atom CD2 / van der Waals contact distance, MASP-2 HIS 483 atom NE2 / van der Waals contact distance, SER 654 C to compound atom / van der Waals contact distance, SER 654 O to compound atom / van der Waals contact distance, TRP 655 C to compound atom / van der Waals contact distance, MASP-2 GLY 528 atom CA / van der Waals contact distance TRP 655 atom CZ3 / van der Waals contact distance TRP 655 atom N / van der Waals contact distance TRP 655 atom CE3 / van der Waals contact distance GLY 656 atom C / van der Waals contact distance GLY 656 atom CA / van der Waals contact distance GLY 656 atom O / van der Waals contact distance, MASP-2 TYR 607 atom CD1 / van der Waals contact distance, MASP-2 PRO 606 atom O / d(C3,CA1) / d(CA1,N1)2 / d(H4,O1) / d(H4,O2) / d(O1,O2) / d(CA1,O2) / d(CA6,O1) / d(CA6,O2) / d(CA1,C5) / d(O2,H3) / d(N2,C2) / d(CA5,N2) / d(N2,C4) / d(N2,C6) / d(N2,CA3) / d(N2,O3) / d(O4,H2): unit not given beside the values
From the text: This example illustrates the preparation of recombinant MASP-2 protein, based on UniProt O00187, human mannan-binding lectin serine protease 2. Expression constructs for human MASP-2 CCP2-SP and CCP2-SP-6HIS were generated for recombinant expression in E. coli cells.
Typically, crystallization hits were obtained by screening against […] 96-well crystallization reagent kits (GRAS6, GRAS2, Hampton Research; MORPHEUS, Molecular Dimensions; Wizard 1&2 Cryo, Rigaku Reagents) and crystal growth was inspected by optical microscopy. Crystals were used directly or further optimized for X-ray diffraction. Crystals were captured with cryogenic loops and dipped into liquid nitrogen directly or cryoprotected with a 20% glycerol in crystallization formulation before flash-cooling in liquid nitrogen.
Thereafter crystals are transferred once or twice for soaking within the crystallization solution containing the MASP-2 inhibitor.
Crystals were diffracted with synchrotron X-rays of […] and X-ray diffraction datasets were collected at beamlines SSRL BL9-2, BL14-1, BL12-2 as well as ALS sector 5 using Dectris Pilatus and Eiger detectors. Structures were determined by molecular replacement using portions of the structure 1Q3X as search models and partially refined with Buster 2.10.2 or Refmac 5.8. […] When multiple ligand poses were observed, for instance arising from multiple molecules in the asymmetric unit or refined dual poses within the same molecule, only one pose was selected and analyzed.
LigPlot+ calls these ‘nonbonded contacts’ or ‘hydrophobic contacts’. Despite the name, there are atom pairings that include possible H-bonds. Thus, in some instances, the Table A2 also contains H-bond interactions.

[1] = Table A5-1 pharmacophore: distance between elements, S2/S1 region
[2] = Table A7-1, between pharmacophore elements of the bound compound

Chain of MASP-2 CCP2-SP (O00187 445-686): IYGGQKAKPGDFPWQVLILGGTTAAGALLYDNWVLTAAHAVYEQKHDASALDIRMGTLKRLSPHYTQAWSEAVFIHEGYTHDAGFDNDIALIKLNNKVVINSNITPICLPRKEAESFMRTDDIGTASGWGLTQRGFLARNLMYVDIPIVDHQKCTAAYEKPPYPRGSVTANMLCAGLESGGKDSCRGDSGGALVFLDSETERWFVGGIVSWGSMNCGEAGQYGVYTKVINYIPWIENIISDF
Chain of MASP-2 CCP2-SP (O00187 364-432 partner): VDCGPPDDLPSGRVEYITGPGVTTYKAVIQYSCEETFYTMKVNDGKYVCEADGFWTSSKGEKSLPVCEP

Cc1cnc(NCCc2ccccc2)c(=O)n1CC(=O)NCc1ccc2nc(N)[nH]c2c1 [compound 1492, N-((2-Amino-1H-benzo[d]imidazol-6-yl)methyl)-2-(6-methyl-2-oxo-3-(phenethylamino)pyrazin-1(2H)-yl)acetamide Trifluoroacetamide salt]
H-bond distance to MASP-2 ASP 627 atom OD2 (Table A1 (H-Bonds), ASP 627 OD2): 3.32 | H-bond distance to MASP-2 GLY 656 atom N (Table A1 (H-Bonds), GLY 656 N): 3.06 | H-bond distance to MASP-2 GLY 656 atom O (Table A1 (H-Bonds), GLY 656 O): 2.7 | H-bond distance to MASP-2 SER 654 atom O (Table A1 (H-Bonds), SER 654 O): 2.78 | H-bond distance to MASP-2 SER 657 atom O (Table A1 (H-Bonds), SER 657 O): 2.72 | H-bond distance to MASP-2 SER 657 atom OG (Table A1 (H-Bonds), SER 657 OG): 2.62 | van der Waals contact distance, MASP-2 HIS 483 atom CD2 (Table A2-1): 3.78 | van der Waals contact distance, MASP-2 PRO 606 atom O (Table A2-4): 3.81 | van der Waals contact distance, MASP-2 amino acid atom to compound atom (Table A2-9 second part, ARG 630, AA atoms N, NE, NH1): 3.71 | van der Waals contact distance, SER 654 C to compound atom (Table A2-11): 3.88 | van der Waals contact distance, VAL 653 CG1 to compound atom (Table A2-11): 3.61 | van der Waals contact distance, TRP 655 C to compound atom (Table A2-12): 3.7 | van der Waals contact distance TRP 655 atom CE3 (Table A2-13, MASP-2 TRP 655 CE3, compound atom in line below): 3.74 | van der Waals contact distance, MASP-2 amino acid atom to compound atom (Table A2 section before Table A2-8): 3.86 | Ligand-pharmacophore element distance, pharmacophore element C2 (Table A4-1, element C2): 2.91 | Ligand-pharmacophore element distance, pharmacophore element C3 (Table A4-1, element C3): 0 | Ligand-pharmacophore element distance, pharmacophore element C4 (Table A4-1, element C4): 0 | Ligand-pharmacophore element distance, pharmacophore element C5 (Table A4-1, element C5): 0 | Ligand-pharmacophore element distance, pharmacophore element C6 (Table A4-1, element C6): 0 | Ligand-pharmacophore element distance, pharmacophore element C7 (Table A4-1, element C7): 0 | Ligand-pharmacophore element distance, pharmacophore element CA1 (Table A4-1, element CA1): 1.7 | Ligand-pharmacophore element distance, pharmacophore element CA2 (Table A4-1, element CA2): 0 | Ligand-pharmacophore element distance, pharmacophore element CA3 (Table A4-1, element CA3): 0 | Ligand-pharmacophore element distance, pharmacophore element CA4 (Table A4-1, element CA4): 0 | Ligand-pharmacophore element distance, pharmacophore element CA5 (Table A4-1, element CA5): 0.84 | Ligand-pharmacophore element distance, pharmacophore element CA6 (Table A4-1, element CA6): 0 | d(CA1,N1) [1]: 1.85 | d(CA1,O1) [1]: 4.66 | d(CA1,O2) [1]: 6.47 | d(CA6,O1) [1]: 3.43 | d(CA6,O2) [1]: 1.13 | d(H4,O1) [1]: 3.14 | d(H4,O2) [1]: 5.11 | d(O1,O2) [1]: 3.18 | d(O2,H3) (Table A5-2 pharmacophore distance, S3/S4 region): 7.20 | a(CA1, O1, O2) (Table A6-1 pharmacophore angle): 137.45 | a(O1, CA6, O2) (Table A6-1 pharmacophore angle): 87.17 | a(O1, O2, H4) (Table A6-1 pharmacophore angle): 143.64 | A(N1, CA1, O1) a) (Table A6-1 pharmacophore angle, all compounds with protonatable center N1 except Methyl-amino-pyridine): 173.84 | a(O1, O2, H3) (Table A6-2 pharmacophore angle): 153.97 | Pharmacophore torsion angle a(CA6, O1, H4, O2) [2]: −19.90 | Pharmacophore torsion angle a(H4, O1, O2, H3) [2]: 94.72 | Pharmacophore torsion angle a(N1, CA1, O2, H4) [2]: −132.36 | Pharmacophore torsion angle a(O1, H4, O2, CA1) [2]: −60.21

From patent US12195427B2, “MASP-2 inhibitors and methods of use” (priority 2018, dated 2025)
